Data on one substance can be found in patent US20100184812A1, “MUTUAL PRODRUGS AND METHODS TO TREAT CANCER” (UNIVERSITY OF MARYLAND, BALTIMORE, priority 2007, published 2010).

Read-outs that look alike come from different tables or passages of the source.

The conditions of series [1]: pH 7.2.
Description: Plasma was obtained by centrifugation of blood samples (obtained from mice) containing 0.25% heparin. 0.8 ml of plasma was mixed with 0.2 ml of phosphate buffer (pH 7.2). Incubations were performed at 37° C.+/−0.5° C. using shaking water bath. The reaction was initiated by adding 25 μl of stock solution of mutual prodrugs (1 mg/ml) to preheated plasma and aliquots were taken at different time interval and extracted using solid phase extraction with C18 Bond Elut columns. HPLC analysis of the extracted samples were performed using a multi-linear gradient solvent system, (i) 20 mM aq. CH3COONH4 buffer/CH3OH(50:50), (100% to 0%) and (ii) CH3OH(100%), (0% to 100%) at a flow rate of 0.8 ml/min.
Plasma was obtained by centrifugation of blood samples containing 0.25% heparin. 0.8 ml of plasma was mixed with 0.2 ml of phosphate buffer (pH 7.2). Incubations were performed at 37° C.±0.5° C. using shaking water bath. […]
HPLC methods were developed to briefly study the cleavage of compounds VNLG/60, VNLG/66, VNLG/114,VNLG/122 and VNLG/124, in fresh mouse plasma. […] Furthermore, the stability of mutual prodrugs was studied in 0.02 M phosphate buffer (pH=7.2) and also in 80% human serum (obtained from Sigma) containing 20% 0.02 M phosphate buffer as previously described.^41 The mutual prodrugs were each incubated at 37° C. for 24 h, extracted and analyzed by HPLC.
The subject of series [2] is PC-3 prostate cancer cells. The series is described as follows: MTT cell growth inhibition assay, PC-3 cells. The following applies: PC-3. Format: cell-based, human. As for the experimental part:
PC-3 (androgen receptor negative, AR−ve) cells were obtained from American Type Culture Collection (ATCC, Rockville, Md., USA). Cells were maintained in RPMI 1640 medium (Gibco, Invitrogen, Carlsbad, Calif., USA) supplemented with 10% fetal bovine serum (Atlanta Biologicals, Lawrenceville, Ga., USA) and 1% penicillin/streptomycin. Cells were grown as a monolayer in T75 tissue culture flasks in a humidified incubator (5% CO2, 95% air) at 37° C.
(§1) PC-3 cells were seeded in 24 well plates (Corning Costar) at a density of 2×10^4 cells per well per 1 mL of medium. Cells were allowed to adhere to the plate for 24 hours and then treated with different concentrations of ATRA, HDIs or mutual prodrugs dissolved in 10% DMSO, 90% ethanol. Cells were treated for five days with renewal of prodrug and media on day 3. On the fifth day, medium was renewed and 100 μL of MTT (3-(4,5-dimethylthiazol-2-yl)-2,5-diphenyl-2H-tetrazolium bromide from Sigma) solution (0.5 mg MTT/mL of media) was added to the medium such that the ratio of MTT:medium was 1:10. The cells were incubated with MTT for 2 hours. The medium was then aspirated and 500 μL of DMSO was added to solubilize the violet MTT-formazan product. The absorbance at 560 nm was measured by spectrophotometry (Victor 1420 multilabel counted, Wallac). For each concentration of agent or mutual prodrugs there were triplicate wells in each independent experiment. GI50 values were calculated by nonlinear regression analysis using GraphPad Prism software.
(§2) The MTT (3-[4,5-dimethylthiazol-2-yl]-2,5-diphenyltetrazolium bromide) assay was used to measure the cell viability. PC-3 cells or MDA-MB-231 cells (1.0×10^3 cells/ml) were seeded into 96 well plates. Cells were treated with the compounds on day 2 at different concentrations. On the 5th day, the medium was removed and […] of a 0.5 mg/ml MTT solution was added to each well. The plates were incubated at 37° C. for 2 hours and 200 μL of DMSO was added. The yellow tetrazolium salt (MTT) is reduced to a purple formazan product by the mitochondrial dehydrogenase from living cells. The product is then detected by spectrophotometry at 560 nm.
To assess the effect of mutual prodrugs on cell growth, PC-3 and MDA-MB-231 cells were treated with mutual prodrugs for […], respectively. […] In this cell line, the order of potency was VNLG/66>VNLG/114>VNLG/122>VNLG/124>VNLG/60. The efficacies of mutual prodrugs were compared to the efficacies of ATRA or HDIs alone in PC-3 prostate cancer cells. […] The reason(s) for these differential potencies of the different mutual prodrugs in PC-3 cells are unknown at this time, but may be idiosyncratic, possibly due to extents and efficiencies of cell membrane penetration and/or intracellular cleavage of mutual prodrugs.

Series [3] has as its system MDA-MB-231 breast cancer cells. In words: MTT colorimetric cell viability assay, MDA-MB-231 cells. The following applies: MDA-MB-231. The format is cell-based. On the procedure: (§3) Other cell lines used in this study include, MDA-MB-231 (estrogen receptor negative, ER−ve), MCF-7 (ER+ve) were also purchased from ATCC and were cultured as previously described.^44, 45 LTLC and LTLT-Ca were kindly provided by Dr. Angela Brodie, University of Maryland, Baltimore, and details of their phenotypes and culturing conditions are as previously reported.^46, 47 MCF-7TAM and MCF-7HoxB-7 were provided by Dr. Sara Sukumar of Johns Hopkins University, Baltimore, and details of their phenotypes and culturing conditions are as previously reported.^48 Except for MCF-7 breast cancer cell all other breast cancer cells used in this study are insensitive to endocrine therapeutic agents and to most anti-cancer agents.
as §2, with “viability.” for “viability. PC-3 cells or”, “compound” for “compounds”
as §2

For a further series, the system named is LTLT-Ca. In words: MTT cell growth inhibition, LTLT-Ca cells. The format is cell-based. On the procedure:
as §3
(§4) PC-3 cells were seeded in 24 well plates (Corning Costar) at a density of 2×10^4 cells per well per 1 mL of medium. Cells were allowed to adhere to the plate for 24 hours and then treated with different concentrations of ATRA, HDIs or mutual prodrugs dissolved in 10% DMSO, 90% ethanol. Cells were treated for five days with renewal of prodrug and media on day 3. […] The absorbance at 560 nm was measured by spectrophotometry (Victor 1420 multilabel counted, Wallac). […] GI50 values were calculated by nonlinear regression analysis using GraphPad Prism software. […]

A further series has as its system MCF-7. The series is described as follows: MTT cell growth inhibition, MCF-7 cells. Format: cell-based. To be noted: MCF-7. On the procedure:
as §3, §1
(§5) Given the potency of most of the mutual prodrugs of the present invention, in MDA-MB-231 and PC-3 cell lines, their effects on the growth of some known drug-resistant breast cancer cell lines, including MCF-7TAMR, MCF-7Hox-B7, LTLC and LTLT-Ca was tested compared to parental MCF-7 cells.

A further series relates to MCF-7TAMR. The series is described as follows: MTT cell growth inhibition, MCF-7TAMR cells. Format: cell-based. The following applies: MCF-7TAMR. As for the experimental part: as §3, §1, §5
In another series the test system is MCF-7HOX-B7. The series is described as follows: MTT cell growth inhibition, MCF-7HOX-B7 cells. Format: cell-based. To be noted: MCF-7HOX-B7. As for the experimental part: as §3, §1, §5
Another series has as its system LTLC. In words: MTT cell growth inhibition, LTLC cells. Format: cell-based. On the procedure:
as §3, §4

One may read the GI50 as the concentration at which growth is held to half of that of the control. As to “{N-[N-{2-[4-{[3-Pyridylmethoxy)carbonyamino]methyl}phenyl)carbonylamino]phenyl}carbamoyl carbamoyloxy}methyl(2E,4E,6E,8E)-3,7-dimethyl-9-(2,6,6-trimethylcyclohex-1-enyl)nona-2,4,6,8-tetraenoate [VNLG/66]”, in series [1], the “hydrolysis of mutual prodrug in plasma” value is reported as “no mutual Prodrug after one hour”. In series [2], the “GI50 fold lower than 2 (MS-275)” value is on record as 4.75 fold. Besides, the 50% growth inhibitory concentration (GI50) in series [2] (dose-response curves, at least three independent experiments, SEM < 10%, read-out: GI50 Values, PC-3 prostate cancer cells) stood at 40 nM; in series [2] (read-out: GI50, PC-3 cells) it was 40 nM; in series [3] (dose-response curves, at least three independent experiments, SEM < 10%, read-out: GI50 Values, MDA-MB-231 breast cancer cells), 940 nM; in series [3] (read-out: GI50, MDA-MB-231 cells), 940 nM; in the series with LTLT-Ca, 650 nM; in the series on MCF-7, 150 nM. Also, the 50% growth inhibitory concentration (GI50) in the series on MCF-7TAMR was 20 nM; in the series on MCF-7HOX-B7, 6 nM; with LTLC it was 20 nM.
